Data: patent publication US20090062369A1, “USE OF SECRETORY PHOSPHOLIPASE A2 (SPLA2) INHIBITORS TO DECREASE SPLA2 LEVELS” (priority 2007, published 2009)

System: serum sPLA2
Assay: Effect of twice-a-day oral A-002 on serum sPLA2 levels in subjects with stable coronary artery disease (Example 6)
Assay type: in vivo, human
Description: The protocol for preparing standard curve, test, and quality control samples for use in the assay disclosed herein is set forth in Example 5. Samples are prepared according to this protocol, then loaded in duplicate onto a plate (Cayman catalog no. 485002 or equivalent) that has been pre-coated with a monoclonal sPLA2 antibody (“capture antibody”) that specifically binds sPLA2. In certain embodiments, the capture antibody may interact with a specific form of sPLA2, such as for example sPLA2 type IIA.
sPLA2 acetylcholinesterase:Fab′ conjugate (AChE:Fab′) (“conjugate”) (Cayman catalog no. 485000 or equivalent) is reconstituted in EIA buffer (Cayman catalog no. 400060 or equivalent). Cayman EIA buffer is 1M phosphate, pH 7.0, 1% BSA, 4M NaCl, 10 mM EDTA, and 0.1% sodium azide. Reconstituted conjugate is added to each well of the plate. The conjugate binds a different sPLA2 epitope than the capture antibody, allowing the capture antibody and the conjugate to form a “sandwich” that is immobilized on the plate. Excess reagents are washed away, and the plate is covered and incubated overnight at 2-8° C.
Prior to development, the wells are washed five to six times with wash buffer (Cayman catalog no. 400062 or equivalent). To develop the plate, Ellman's Reagent (Cayman catalog no. 400050 or equivalent) is reconstituted in water and added to each well according to manufacturer instructions. The reconstituted Ellman's Reagent must be used the same day it is prepared because it is unstable. Ellman's Reagent contains an AChE substrate. Specifically, Ellman's Reagent contains acetylthiocholine and 5,5′-dithio-bis-(2-nitrobenzoic acid). Hydrolysis of acetylthiocholine by acetylcholinesterase produces thiocholine, which reacts with 5,5′-dithio-bis-(2-nitrobenzoic acid) to produce 5-thio-2-nitrobenzoic acid. 5-thio-2-nitrobenzoic acid has a strong absorbance at 412 nm. The intensity of absorbance at this wavelength is directly proportional to the concentration of bound conjugate, which is in turn is directly proportional to the concentration of sPLA2 present (Absorbance a [AChE:Fab′ conjugate] α [sPLA2]). During the development step, the plate is shaken, preferably in the dark. In certain embodiments the development time for the assay is 0.5 to 3 hours, preferably 1 to 1.5 hours. At the end of the development period, the high sPLA2 standards should have greater yellow color development than the zero standards. Absorbance of each well is measured at 400-420 nm using a micro-well plate reader. In certain embodiments, absorbance is measured at about 405 nm.
Absorbance readings for duplicate wells are averaged, and the relative standard deviation and % CV are calculated. Standard curve data are used to generate a four parameter curve, and quality control and test samples are measured against the appropriate standard curve (i.e., the standard curve with the same serum content). In order for a test to be considered valid, variation between duplicate wells should be no more than about 25%, and negative controls (blanks) for each standard curve should have a mean absorbance of less than about 0.3.
The method disclosed herein for measuring sPLA2 levels in serum was utilized to determine the effect of administering certain sPLA2 inhibitors on sPLA2 levels in 84 human subjects. The subjects included 24 subjects with diabetes, 32 subjects with metabolic syndrome, and 75 subjects receiving statin treatment. Subjects were administered the sPLA2 inhibitor A-002, a prodrug form of A-001, twice a day at varying dosages from 50 to 500 mg. The structures of A-002and A-001 are set forth below. At two weeks and four weeks after the first administration, sPLA2 levels were measured and compared to pre-administration baseline levels.
84 subjects with stable coronary artery disease were randomized to receive placebo or A-002 via oral administration twice a day over a four week administration period. […]

[1] = A-002 (100 mg), non-statin subgroup of ITT population
[2] = A-002 (250 mg), ITT subjects exhibiting at least 3 out of 5 metabolic syndrome criteria
[3] = A-002 (250 mg), non-statin subgroup of ITT population
[4] = A-002 (500 mg), ITT subjects exhibiting at least 3 out of 5 metabolic syndrome criteria

## CCc1c(C(=O)C(N)=O)c2c(OCC(=O)OC)cccc2n1Cc1ccccc1 [A-002, [[3-(2-Amino-1,2-dioxoethyl)-2-ethyl-1-(phenylmethyl)-1H-indol-4-yl]oxy]acetic acid methyl ester]
[1]
  sPLA2 level, Change from baseline at week 2, Mean: -1.90 ng/mL
  sPLA2 level, Change from baseline at week 2, Median: -1.90 ng/mL
  sPLA2 level, Change from baseline at week 2, Range: −1.90 to −1.90 ng/ml
  sPLA2 level, Change from baseline at week 4, Mean: -3.05 ng/mL
  sPLA2 level, Change from baseline at week 4, Median: -3.05 ng/mL
  sPLA2 level, Change from baseline at week 4, Range: -4.40 to -1.70 ng/mL
  sPLA2 level, Week 2, Mean: 0.90 ng/mL
  sPLA2 level, Week 2, Median: 0.90 ng/mL
  sPLA2 level, Week 2, Range: 0.90 to 0.90 ng/ml
  sPLA2 level, Week 4, Mean: 0.80 ng/mL
  sPLA2 level, Week 4, Median: 0.80 ng/mL
  sPLA2 level, Week 4, Range: 0.50 to 1.10 ng/mL
[2]
  sPLA2 level, Baseline, Mean: 2.90 ng/mL
  sPLA2 level, Baseline, Median: 2.20 ng/mL
  sPLA2 level, Baseline, Range: 1.80 to 4.70 ng/mL
  sPLA2 level, Change from baseline at week 2, Mean: -1.65 ng/mL
  sPLA2 level, Change from baseline at week 2, Median: -1.65 ng/mL
  sPLA2 level, Change from baseline at week 2, Range: -1.90 to -1.40 ng/mL
  sPLA2 level, Change from baseline at week 4, Mean: -1.75 ng/mL
  sPLA2 level, Change from baseline at week 4, Median: -1.75 ng/mL
  sPLA2 level, Change from baseline at week 4, Range: -2.10 to -1.40 ng/mL
  sPLA2 level, Week 2, Mean: 0.33 ng/mL
  sPLA2 level, Week 2, Median: 0.30 ng/mL
  sPLA2 level, Week 2, Range: 0.30 to 0.40 ng/mL
  sPLA2 level, Week 4, Mean: 0.27 ng/mL
  sPLA2 level, Week 4, Median: 0.30 ng/mL
  sPLA2 level, Week 4, Range: 0.10 to 0.40 ng/mL
[3]
  sPLA2 level, Baseline, Mean: 3.40 ng/mL
  sPLA2 level, Baseline, Median: 3.40 ng/mL
  sPLA2 level, Baseline, Range: 3.40 to 3.40 ng/ml
  sPLA2 level, Change from baseline at week 2, Mean: -2.10 ng/mL
  sPLA2 level, Change from baseline at week 2, Median: -2.10 ng/mL
  sPLA2 level, Change from baseline at week 2, Range: −2.10 to −2.10 ng/ml
  sPLA2 level, Change from baseline at week 4, Mean: -2.20 ng/mL
  sPLA2 level, Change from baseline at week 4, Median: -2.20 ng/mL
  sPLA2 level, Change from baseline at week 4, Range: −2.20 to −2.20 ng/ml
  sPLA2 level, Week 2, Mean: 1.30 ng/mL
  sPLA2 level, Week 2, Median: 1.30 ng/mL
  sPLA2 level, Week 2, Range: 1.30 to 1.30 ng/ml
  sPLA2 level, Week 4, Mean: 1.20 ng/mL
  sPLA2 level, Week 4, Median: 1.20 ng/mL
  sPLA2 level, Week 4, Range: 1.20 to 1.20 ng/ml
[4]
  sPLA2 level, Baseline, Mean: 3.05 ng/mL
  sPLA2 level, Baseline, Median: 3.40 ng/mL
  sPLA2 level, Baseline, Range: 1.20 to 4.40 ng/mL
  sPLA2 level, Change from baseline at week 2, Mean: -2.94 ng/mL
  sPLA2 level, Change from baseline at week 2, Median: -3.50 ng/mL
  sPLA2 level, Change from baseline at week 2, Range: -4.00 to -1.15 ng/mL
  sPLA2 level, Change from baseline at week 4, Mean: -3.04 ng/mL
  sPLA2 level, Change from baseline at week 4, Median: -3.70 ng/mL
  sPLA2 level, Change from baseline at week 4, Range: -4.35 to -1.15 ng/mL
  sPLA2 level, Week 2, Mean: 0.16 ng/mL
  sPLA2 level, Week 2, Median: 0.05 ng/mL
  sPLA2 level, Week 2, Range: 0.05 to 0.40 ng/mL
  sPLA2 level, Week 4, Mean: 0.06 ng/mL
  sPLA2 level, Week 4, Median: 0.05 ng/mL
